Values quoted from earlier work, collected in publication PMC7449315 (Journal for Immunotherapy of Cancer, 2020).

Settings: early phase I studies, single agent; ref 28 30 31; cited from earlier work

Row | Compound | best overall response
1 | NS(=O)(=O)NCCNc1nonc1C(=NO)Nc1ccc(F)c(Br)c1 [epacadostat] | stable disease
2 | Cn1cc(C[C@@H](N)C(=O)O)c2ccccc21 [indoximod] | stable disease
3 | O[C@H](C[C@H]1c2c(F)cccc2-c2cncn21)[C@H]1CC[C@H](O)CC1 [navoximod] | stable disease
